Key:
[1] = tested on: Male ICR mice; experiment: Conditioned place preference test for psychological dependence on morphine; conditions: p<0.01, FIG. 1
Excerpt: (§1) 10 to 15 mice per group were used.

[2] = tested on: Male ICR mice; experiment: Spontaneous locomotor activity increased by morphine (Video-tracking system); format: in vivo; conditions: for locomotor activity (steps): six days; for suppression of locomotor activity increased by morphine vs morphine control group: p<0.001
Description: as §1
Spontaneous locomotor activity was tested in a plastic chamber (26×30×30 cm) using a Video-tracking system. […] Immediately after the last administration, the mice were placed in the plastic chamber, and spontaneous locomotor activity was recorded for 30 min and analyzed using a computer program.

[3] = tested on: mice; experiment: Hot-plate test, morphine tolerance caused by repeated administration; format: in vivo; conditions: berberine 10 mg/kg i.p. 30 min before morphine 10 mg/kg s.c., six days, tested day 7; P<0.01; FIG. 4
[4] = tested on: Male ICR mice; conditions: berberine 1, 3 and 10 mg/kg i.p. 30 min before morphine 5 mg/kg s.c.; FIG. 3
[5] = tested on: rats; conditions: intraperitoneal injection; cited from earlier work

Row | Compound | inhibition of psychological dependence on morphine ([1]; berberine 1 or 2 mg/kg orally one hour before morphine 5 mg/kg i.p., equal to saline control) | locomotor activity (steps) ([2]; berberine 1 mg/kg orally one hour before morphine 10 mg/kg, recorded 30 min) | suppression of locomotor activity increased by morphine vs morphine control group ([2]; berberine 1 mg/kg orally) [%] | locomotor activity (steps) ([2]; berberine 2 mg/kg orally one hour before morphine 10 mg/kg, recorded 30 min) | suppression of locomotor activity increased by morphine vs morphine control group ([2]; berberine 2 mg/kg orally) [%] | inhibition of the development of morphine tolerance (AUC) [3] | effect on the analgesic effect of morphine (AUC of % MPE) [4] | LD50 [5] [mg/kg] | development of psychological dependence (testing time minus preconditioning time) ([1]; morphine control, 5 mg/kg i.p. on days 3, 5, 7, 9) | locomotor activity (steps by a forefoot) ([2]; only morphine 10 mg/kg once per day for six days, recorded 30 min) [steps]
1 | COc1ccc2cc3[n+](cc2c1OC)CCc1cc2c(cc1-3)OCO2 [berberine, 7,8,13,13a-tetradihydro-9,10-dimethoxy-2,3-(methyldioxy)berbinium] | completely inhibited | 19744 | 61 | 20027 | 60 | significantly inhibited | rarely affect the analgesic effect of morphine | 90 |  | 
2 | CN1CC[C@]23c4c5ccc(O)c4O[C@H]2[C@@H](O)C=C[C@H]3[C@H]1C5 [morphine] |  |  |  |  |  |  |  |  | significant psychological dependence | 50242
